Reference: US8383581B2, “Short-chain peptides as parathyroid hormone (PTH) receptor agonist” (Cadila Healthcare Limited, priority 2009, dated 2013)
Where a SMILES comes first, the peptide text is derived from it. [ ]: non-standard residue; d: D form. ξ: configuration not given here. ξαMeBip(2'-Et,4'-OMe) = CCc1cc(OC)ccc1-c1ccc(CC(C)(N)C(=O)O)cc1; Arg(NO2) = N=C(NCCC[C@H](N)C(=O)O)N[N+](=O)[O-]; αMePhe(2,6-F2) = C[C@](N)(Cc1c(F)cccc1F)C(=O)O; ξαMePhe(2,6-F2) = CC(N)(Cc1c(F)cccc1F)C(=O)O; ξαMePhe(2-F) = CC(N)(Cc1ccccc1F)C(=O)O; hhPhe = N[C@@H](CCCc1ccccc1)C(=O)O; hArg = N=C(N)NCCCC[C@H](N)C(=O)O; Cit = NC(=O)NCCC[C@H](N)C(=O)O; ξαMeF = CC(N)(Cc1ccccc1)C(=O)O; ξαMeM = CSCCC(C)(N)C(=O)O; Nle = CCCC[C@H](N)C(=O)O; Orn = NCCC[C@H](N)C(=O)O; ξαMeP = CC1(C(=O)O)CCCN1; Ac5c = NC1(C(=O)O)CCCC1; Ac3c = NC1(C(=O)O)CC1; Aib = CC(C)(N)C(=O)O

Columns and labels:
Assay type in all cases: in vitro ADME
[1] = Stability of peptides in human liver microsomes; settings: human, microsomes; for % degradation of peptides in 24 h when incubated with liver microsomes: 2 μM, pH 7.8
Procedure, shortened: (§1)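 Peptides at 2 μM final incubated 0–24 h at 37 °C (50 mM triethanolamine-HCl, pH 7.8) in each matrix, matrix level set to degrade ~50% PTH(1-34) in 1 h; TFA-quenched, C18 HPLC at 206 nm with ESI-MS peak identification; percent degradation from peak areas at each time point.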

[2] = Stability of peptides in simulated gastric fluid (pH 1.5; HCl, NaCl and Pepsin); settings: pH 1.5; for % degradation of peptides in 24 h when incubated with simulated gastric fluid: 2 μM; for half-life / half-life (t1/2) in simulated gastric fluid: simulated gi fluid
[3] = Stability of peptides in human plasma; settings: human, plasma; for metabolised at 24 h, 2 μM: pH 7.8
Procedure, shortened: as §1

[4] = Stability of peptides in simulated intestinal fluid (pH 7.5); settings: pH 7.5; for half-life / half-life (t1/2) in simulated intestinal fluid: simulated gi fluid; for % degradation of peptides in 24 h when incubated with simulated intestinal fluid: 2 μM
Procedure, shortened: as §1

Structure (SMILES) | half-life [1] [h] | % degradation of peptides in 24 h when incubated with liver microsomes [1] [%] | % degradation of peptides in 24 h when incubated with simulated gastric fluid [2] [%] | half-life [2] [h] | half-life [3] [h] | metabolised at 24 h, 2 μM [3] [%] | half-life [4] [h] | % degradation of peptides in 24 h when incubated with simulated intestinal fluid [4] [%] | half-life (t1/2) in liver microsomes [1] | half-life (t1/2) in human plasma [3] | half-life (t1/2) in simulated gastric fluid [2] | half-life (t1/2) in simulated intestinal fluid [4]
CCCC[C@H](NC(=O)[C@](C)(Cc1c(F)cccc1F)NC(=O)[C@H](CCC(N)=O)NC(=O)[C@@H](NC(=O)[C@H](CCC(=O)O)NC(=O)C(C)(C)NC(=O)[C@@H](NC(=O)C(C)(C)N)C(C)C)[C@@H](C)CC)C(=O)N[C@@H](Cc1c[nH]cn1)C(=O)N[C@@H](CCC(N)=O)C(=O)N[C@@H](CCCNC(N)=O)C(=O)NC(C)(C)C(=O)N[C@@](C)(Cc1c(F)cccc1F)C(=O)N[C@@](C)(Cc1c(F)cccc1F)C(N)=O [Seq. ID. 390] (H-[Aib]V[Aib]EIQ[αMePhe(2,6-F2)][Nle]HQ[Cit][Aib][αMePhe(2,6-F2)][αMePhe(2,6-F2)]-NH2) | 2 | 84 | 55 | 4 | > 24 | 0 | > 24 | 00 |  |  |  | 
CCc1cc(OC)ccc1-c1ccc(CC(C)(NC(=O)[C@H](CCCCNC(=N)N)NC(=O)[C@H](C)NC(=O)[C@H](CCCCNC(=N)N)NC(=O)[C@H](CCC(N)=O)NC(=O)[C@H](Cc2c[nH]cn2)NC(=O)[C@H](CCSC)NC(=O)[C@H](CC(C)C)NC(=O)[C@H](CCC(N)=O)NC(=O)[C@@H](NC(=O)[C@H](CCC(=O)O)NC(=O)C(C)(C)NC(=O)[C@@H](NC(=O)C(C)(C)N)C(C)C)[C@@H](C)CC)C(=O)N[C@@H](CCCc2ccccc2)C(N)=O)cc1 (stereo partly drawn) [Seq. ID. 898] (H-[Aib]V[Aib]EIQLMHQ[hArg]A[hArg][ξαMeBip(2'-Et,4'-OMe)][hhPhe]-NH2) |  | 26 | 00 | > 24 | > 24 | 0 | > 24 | 00 | (5) h |  |  | 
CCCC[C@H](NC(=O)C(C)(Cc1ccccc1F)NC(=O)[C@H](CCC(N)=O)NC(=O)[C@@H](NC(=O)[C@H](CCC(=O)O)NC(=O)C(C)(C)NC(=O)[C@@H](NC(=O)C1(N)CC1)C(C)C)[C@@H](C)CC)C(=O)N[C@@H](Cc1c[nH]cn1)C(=O)N[C@@H](CCC(N)=O)C(=O)N[C@@H](CCCCNC(=N)N)C(=O)NC(C)(C)C(=O)N[C@@H](CCCCN)C(=O)NC(C)(Cc1c(F)cccc1F)C(N)=O (stereo partly drawn) [Seq. ID. 95] (H-[Ac3c]V[Aib]EIQ[ξαMePhe(2-F)][Nle]HQ[hArg][Aib]K[ξαMePhe(2,6-F2)]-NH2) | 0.5 | 100 | 100 | 0.5 |  | 80 | 0.5 | 100 |  | (9) h |  | 
CCc1cc(OC)ccc1-c1ccc(CC(C)(NC(=O)[C@H](CCCCNC(=N)N)NC(=O)[C@H](C)NC(=O)[C@H](CCCCNC(=N)N)NC(=O)[C@H](CCC(N)=O)NC(=O)[C@H](Cc2c[nH]cn2)NC(=O)C(C)(CCSC)NC(=O)[C@H](CC(C)C)NC(=O)[C@H](CCC(N)=O)NC(=O)[C@@H](NC(=O)[C@H](CCC(=O)O)NC(=O)C(C)(C)NC(=O)[C@@H](NC(=O)C(C)(C)N)C(C)C)[C@@H](C)CC)C(=O)N[C@@H](CCCc2ccccc2)C(N)=O)cc1 (stereo partly drawn) [Seq. ID. 910] (H-[Aib]V[Aib]EIQL[ξαMeM]HQ[hArg]A[hArg][ξαMeBip(2'-Et,4'-OMe)][hhPhe]-NH2) | 0.5 | 100 | 100 | 0.5 |  | 77 | 0.5 | 100 |  | (9) h |  | 
CCCC[C@H](NC(=O)C(C)(Cc1ccccc1F)NC(=O)[C@H](CCC(N)=O)NC(=O)[C@@H](NC(=O)[C@H](CCC(=O)O)NC(=O)C1(NC(=O)[C@@H](NC(=O)C2(N)CCCC2)C(C)C)CCCC1)[C@@H](C)CC)C(=O)N[C@@H](Cc1c[nH]cn1)C(=O)N[C@@H](CCC(N)=O)C(=O)N[C@@H](CCCCNC(=N)N)C(=O)N1CCCC1(C)C(=O)N[C@@H](CCCCN)C(=O)NC(C)(Cc1ccccc1)C(N)=O (stereo partly drawn) [Seq. ID. 34] (H-[Ac5c]V[Ac5c]EIQ[ξαMePhe(2-F)][Nle]HQ[hArg][ξαMeP]K[ξαMeF]-NH2) | 1 | 77 | 15 |  | 8 | 70 |  | 41 |  |  | (8) h | (6) h
CCCC[C@H](NC(=O)C(C)(Cc1c(F)cccc1F)NC(=O)[C@H](CCC(N)=O)NC(=O)[C@@H](NC(=O)[C@H](CCC(=O)O)NC(=O)C(C)(C)NC(=O)[C@@H](NC(=O)C(C)(C)N)C(C)C)[C@@H](C)CC)C(=O)N[C@@H](Cc1c[nH]cn1)C(=O)N[C@@H](CCC(N)=O)C(=O)NC(C)(C)C(=O)NC(C)(C)C(=O)N[C@@H](CCCNC(=N)N[N+](=O)[O-])C(=O)NC(C)(Cc1ccccc1F)C(N)=O (stereo partly drawn) [Seq. ID. 590] (H-[Aib]V[Aib]EIQ[ξαMePhe(2,6-F2)][Nle]HQ[Aib][Aib][Arg(NO2)][ξαMePhe(2-F)]-NH2) |  | 35 | 00 | > 24 | > 24 | 0 | > 24 | 00 | (5) h |  |  | 
CCCC[C@H](NC(=O)C(C)(Cc1c(F)cccc1F)NC(=O)[C@H](CCC(N)=O)NC(=O)[C@@H](NC(=O)[C@H](CCC(=O)O)NC(=O)C(C)(C)NC(=O)[C@@H](NC(=O)C(C)(C)N)C(C)C)[C@@H](C)CC)C(=O)N[C@@H](Cc1c[nH]cn1)C(=O)N[C@@H](CCC(N)=O)C(=O)NC(C)(Cc1c(F)cccc1F)C(=O)N[C@@H](C)C(=O)N[C@@H](CCCNC(=N)N[N+](=O)[O-])C(=O)NC(C)(Cc1ccccc1F)C(N)=O (stereo partly drawn) [Seq. ID. 525] (H-[Aib]V[Aib]EIQ[ξαMePhe(2,6-F2)][Nle]HQ[ξαMePhe(2,6-F2)]A[Arg(NO2)][ξαMePhe(2-F)]-NH2) | 1 | 79 | 12 |  | 8 | 78 |  | 55 |  |  | (8) h | (6) h
CCCC[C@H](NC(=O)C(C)(Cc1ccccc1F)NC(=O)[C@H](CCC(N)=O)NC(=O)[C@@H](NC(=O)[C@H](CCC(=O)O)NC(=O)C(C)(C)NC(=O)[C@@H](NC(=O)C1(N)CCCC1)C(C)C)[C@@H](C)CC)C(=O)N[C@@H](Cc1c[nH]cn1)C(=O)N[C@@H](CCC(N)=O)C(=O)N[C@@H](CCCN)C(=O)N[C@@H](C)C(=O)NC(C)(Cc1c(F)cccc1F)C(=O)NC(C)(Cc1ccccc1F)C(N)=O (stereo partly drawn) [Seq. ID. 315] (H-[Ac5c]V[Aib]EIQ[ξαMePhe(2-F)][Nle]HQ[Orn]A[ξαMePhe(2,6-F2)][ξαMePhe(2-F)]-NH2) | 0.5 | 100 | 100 | 0.5 |  | 71 | 0.5 | 100 |  | (9) h |  | 
CCCC[C@H](NC(=O)C(C)(Cc1ccccc1F)NC(=O)[C@H](CCC(N)=O)NC(=O)[C@@H](NC(=O)[C@H](CCC(=O)O)NC(=O)C(C)(C)NC(=O)[C@@H](NC(=O)C(C)(C)N)C(C)C)[C@@H](C)CC)C(=O)N[C@@H](Cc1c[nH]cn1)C(=O)N[C@@H](CCC(N)=O)C(=O)N[C@@H](CCCCNC(=N)N)C(=O)NC(C)(C)C(=O)NC(C)(C)C(=O)NC(C)(Cc1c(F)cccc1F)C(N)=O (stereo partly drawn) [Seq. ID. 182] (H-[Aib]V[Aib]EIQ[ξαMePhe(2-F)][Nle]HQ[hArg][Aib][Aib][ξαMePhe(2,6-F2)]-NH2) |  | 26 | 00 | > 24 | > 24 | 0 | > 24 | 00 | (5) h |  |  | 
